Measurements from patent US8148373B2, “Compounds” (AstraZeneca AB, priority 2008, dated 2012).

Legend:
[1] = molecular target: T1, Adrenergic β2 (H292 cells) (Homo sapiens, UniProt P07550); assay: Adrenergic β2 Mediated cAMP Production, single concentration 1 μM; assay type: cell-based; details: percentage of the maximum response generated by 1E-07M formoterol; for activation at 1 µM: NCI-H292, 1 μM compound, read-out: β2 (% effect at 1 μM); for β2 (% effect at 1 μM): 1 μM compound
T1 construct: endogenous in cells; host or cells: H292 cells
T1 sequence (P07550 whole entry): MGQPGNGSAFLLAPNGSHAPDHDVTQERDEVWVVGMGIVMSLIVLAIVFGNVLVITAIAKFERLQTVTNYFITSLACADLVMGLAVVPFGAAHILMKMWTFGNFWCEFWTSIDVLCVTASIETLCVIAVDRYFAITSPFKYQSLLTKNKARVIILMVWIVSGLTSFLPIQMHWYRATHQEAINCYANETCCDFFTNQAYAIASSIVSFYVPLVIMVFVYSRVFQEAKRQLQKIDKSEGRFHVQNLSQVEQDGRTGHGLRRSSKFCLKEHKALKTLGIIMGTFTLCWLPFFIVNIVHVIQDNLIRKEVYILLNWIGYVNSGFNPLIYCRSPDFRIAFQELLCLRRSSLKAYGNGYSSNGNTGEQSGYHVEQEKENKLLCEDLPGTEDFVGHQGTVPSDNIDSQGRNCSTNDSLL
How it was run: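 H292 cells were plated overnight, pre-treated with 300 μM rolipram for 10 min, then exposed to compound at 1 μM final (1% DMSO) for 60 min at room temperature. cAMP in the lysates was measured by AlphaScreen against a standard curve and expressed as % of the maximal response to 1E-07M formoterol.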

[2] = molecular target: T2, human muscarinic acetylcholine M3 receptor (M3-ACh) (Homo sapiens, UniProt P20309); assay: Muscarinic 3 Receptor Binding Assay, % inhibition specific binding at 1 μM; details: 1 μM compound, % inhibition specific [3H]-NMS binding
T2 construct: expressed in transfected cells; host or cells: CHO-K1 (Chinese Hamster Ovary) cell membranes
T2 sequence (P20309 whole entry): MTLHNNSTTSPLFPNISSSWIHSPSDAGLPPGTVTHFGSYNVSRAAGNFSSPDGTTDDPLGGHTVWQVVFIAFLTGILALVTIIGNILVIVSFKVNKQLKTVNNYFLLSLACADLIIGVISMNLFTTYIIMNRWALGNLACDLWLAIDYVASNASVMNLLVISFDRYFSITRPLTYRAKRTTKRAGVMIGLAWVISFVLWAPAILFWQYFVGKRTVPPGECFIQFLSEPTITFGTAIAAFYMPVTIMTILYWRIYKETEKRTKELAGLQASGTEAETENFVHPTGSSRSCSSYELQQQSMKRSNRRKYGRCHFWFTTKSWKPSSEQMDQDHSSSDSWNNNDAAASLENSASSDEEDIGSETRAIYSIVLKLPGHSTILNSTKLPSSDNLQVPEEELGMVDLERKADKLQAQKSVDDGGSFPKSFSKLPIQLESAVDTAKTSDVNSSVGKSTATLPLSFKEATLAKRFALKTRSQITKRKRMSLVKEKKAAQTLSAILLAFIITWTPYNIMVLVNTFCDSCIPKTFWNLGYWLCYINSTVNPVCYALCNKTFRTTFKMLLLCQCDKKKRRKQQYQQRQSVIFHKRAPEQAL
How it was run: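 Competition binding of 0.1 nM [3H]NMS to membranes from CHO-K1 cells expressing human M3, SPA format, with compound at 1 μM in 20 mM HEPES pH 7.4, 5 mM MgCl2, 1% DMSO. Incubated 16 h at room temperature; non-specific binding defined by 1 μM atropine; value is % inhibition of specific binding.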

SMILES	activation at 1 µM [1] [%]	inhibition at 1 µM [2] [%]	M3 (% inhibition at 1 μM) [2] [%]	β2 (% effect at 1 μM) [1] [%]	M3 (% inhibition at 1 μM) ([2]; 1 µM) [%]
CC(C)(C(=O)N1CCOC2(CCN(CCCCCCCCCNC[C@H](O)c3ccc(O)c4[nH]c(=O)sc34)CC2)C1)c1ccccc1 [Example 189, (R)-4-hydroxy-7-(1-hydroxy-2-(9-(4-(2-methyl-2-phenylpropanoyl)-1-oxa-4,9-diazaspiro[5.5]undecan-9-yl)nonylamino)ethyl)benzo[d]thiazol-2(3H)-one]	93	96			
O=C(c1ccc(-c2ccccc2)cc1)N1CCOC2(CCN(Cc3cc(F)cc(CCNC[C@H](O)c4ccc(O)c5[nH]c(=O)sc45)c3)CC2)C1 [Example 171, (R)-7-(2-(3-((4-(biphenylcarbonyl)-1-oxa-4,9-diazaspiro[5.5]undecan-9-yl)methyl)-5-fluorophenethylamino)-1-hydroxyethyl)-4-hydroxybenzo[d]thiazol-2(3H)-one]				86	11
CC1=NNC(=O)C1CCC(=O)N1CCOC2(CCN(Cc3cc(F)cc(CCNC[C@H](O)c4ccc(O)c5[nH]c(=O)sc45)c3)CC2)C1 (stereo partly drawn) [Example 161, 7-((1R)-2-(3-fluoro-5-((4-(3-(3-methyl-5-oxo-4,5-dihydro-1H-pyrazol-4-yl)propanoyl)-1-oxa-4,9-diazaspiro[5.5]undecan-9-yl)methyl)phenethylamino)-1-hydroxyethyl)-4-hydroxybenzo[d]thiazol-2(3H)-one]	87	42			
O=C(COCc1ccccc1)N1CCOC2(CCN(CCOc3ccc(CNC[C@H](O)c4ccc(O)c5[nH]c(=O)sc45)cc3)CC2)C1 [Example 244, (R)-7-(2-(4-(2-(4-(2-(benzyloxy)acetyl)-1-oxa-4,9-diazaspiro[5.5]undecan-9-yl)ethoxy)benzylamino)-1-hydroxyethyl)-4-hydroxy-benzo[d]thiazol-2(3H)-one]	60	48			
Cc1nc(C)c(CC(=O)N2CCOC3(CCN(CCOc4ccc(CNC[C@H](O)c5ccc(O)c6[nH]c(=O)sc56)cc4)CC3)C2)s1 [Example 252, (R)-7-(2-(4-(2-(4-(2-(2,4-dimethylthiazol-5-yl)acetyl)-1-oxa-4,9-diazaspiro[5.5]undecan-9-yl)ethoxy)benzylamino)-1-hydroxyethyl)-4-hydroxy-benzo[d]thiazol-2(3H)-one]	88	10			
O=C(CCCc1cccs1)N1CCOC2(CCN(CCCCCCCCCNC[C@H](O)c3ccc(O)c4[nH]c(=O)sc34)CC2)C1 [Example 183, (R)-4-hydroxy-7-(1-hydroxy-2-(9-(4-(4-(thiophen-2-yl)butanoyl)-1-oxa-4,9-diazaspiro[5.5]undecan-9-yl)nonylamino)ethyl)benzo[d]thiazol-2(3H)-one]	91	97			
O=C(c1csc(C2CCCC2)n1)N1CCOC2(CCN(CCOc3ccc(CNC[C@H](O)c4ccc(O)c5[nH]c(=O)sc45)cc3)CC2)C1 [Example 262, (R)-7-(2-(4-(2-(4-(2-cyclopentylthiazole-4-carbonyl)-1-oxa-4,9-diazaspiro[5.5]undecan-9-yl)ethoxy)benzylamino)-1-hydroxyethyl)-4-hydroxy-benzo[d]thiazol-2(3H)-one]	69	82			
Cc1ccoc1C(=O)N1CCOC2(CCN(CCCCCCCCCNC[C@H](O)c3ccc(O)c4[nH]c(=O)sc34)CC2)C1 [Example 193, (R)-4-hydroxy-7-(1-hydroxy-2-(9-(4-(3-methylfuran-2-carbonyl)-1-oxa-4,9-diazaspiro[5.5]undecan-9-yl)nonylamino)ethyl)benzo[d]thiazol-2(3H)-one]	91	99			

Continued, in another order:

activation at 1 µM [1] [%]	inhibition at 1 µM [2] [%]	M3 (% inhibition at 1 μM) [2] [%]	SMILES	β2 (% effect at 1 μM) [1] [%]	M3 (% inhibition at 1 μM) ([2]; 1 µM) [%]
100	-3		CC(C)n1nnc2cc(C(=O)N3CCOC4(CCN(Cc5cc(F)cc(CCNC[C@H](O)c6ccc(O)c7[nH]c(=O)sc67)c5)CC4)C3)ccc21 [Example 142, (R)-7-(2-(3-fluoro-5-((4-(1-isopropyl-1H-benzo[d][1,2,3]triazole-5-carbonyl)-1-oxa-4,9-diazaspiro[5.5]undecan-9-yl)methyl)phenethylamino)-1-hydroxyethyl)-4-hydroxybenzo[d]thiazol-2(3H)-one]		
102	28		CCOc1ccc(O)c(C(=O)N2CCOC3(CCN(Cc4cc(F)cc(CCNC[C@H](O)c5ccc(O)c6[nH]c(=O)sc56)c4)CC3)C2)c1 [Example 154, (R)-7-(2-(3-((4-(5-ethoxy-2-hydroxybenzoyl)-1-oxa-4,9-diazaspiro[5.5]undecan-9-yl)methyl)-5-fluorophenethylamino)-1-hydroxyethyl)-4-hydroxybenzo[d]thiazol-2(3H)-one]		
		10	O=C(COc1ccc(O)cc1)N1CCOC2(CCN(Cc3cc(F)cc(CCNC[C@H](O)c4ccc(O)c5[nH]c(=O)sc45)c3)CC2)C1 [Example 181, (R)-7-(2-(3-fluoro-5-((4-(2-(4-hydroxyphenoxy)acetyl)-1-oxa-4,9-diazaspiro[5.5]undecan-9-yl)methyl)phenethylamino)-1-hydroxyethyl)-4-hydroxybenzol[d]thiazol-2(3H)-one]	86	
102	13		Cc1ccc2[nH]c(C(=O)N3CCOC4(CCN(Cc5cc(F)cc(CCNC[C@H](O)c6ccc(O)c7[nH]c(=O)sc67)c5)CC4)C3)cc2c1 [Example 157, (R)-7-(2-(3-fluoro-5-((4-(5-methyl-1H-indole-2-carbonyl)-1-oxa-4,9-diazaspiro[5.5]undecan-9-yl)methyl)phenethylamino)-1-hydroxyethyl)-4-hydroxybenzo[d]thiazol-2(3H)-one]		
78	1		O=C(Cn1c(C(F)(F)F)nc2ccccc21)N1CCOC2(CCN(Cc3cc(F)cc(CCNC[C@H](O)c4ccc(O)c5[nH]c(=O)sc45)c3)CC2)C1 [Example 177, (R)-7-(2-(3-fluoro-5-((4-(2-(2-(trifluoromethyl)-1H-benzo[d]imidazol-1-yl)acetyl)-1-oxa-4,9-diazaspiro[5.5]undecan-9-yl)methyl)phenethylamino)-1-hydroxyethyl)-4-hydroxybenzo[d]thiazol-2(3H)-one]		
95	25		Cc1nonc1CC(=O)N1CCOC2(CCN(Cc3cc(F)cc(CCNC[C@H](O)c4ccc(O)c5[nH]c(=O)sc45)c3)CC2)C1 [Example 163, (R)-7-(2-(3-fluoro-5-((4-(2-(4-methyl-1,2,5-oxadiazol-3-yl)acetyl)-1-oxa-4,9-diazaspiro[5.5]undecan-9-yl)methyl)phenethylamino)-1-hydroxyethyl)-4-hydroxybenzo[d]thiazol-2(3H)-one]		
92	51		Cc1cc(C(=O)N2CCOC3(CCN(Cc4cc(F)cc(CCNC[C@H](O)c5ccc(O)c6[nH]c(=O)sc56)c4)CC3)C2)oc1C [Example 180, (R)-7-(2-(3-((4-(4,5-dimethylfuran-2-carbonyl)-1-oxa-4,9-diazaspiro[5.5]undecan-9-yl)methyl)-5-fluorophenethylamino)-1-hydroxyethyl)-4-hydroxybenzo[d]thiazol-2(3H)-one]		
100	60		O=C(c1ccc2ccccc2n1)N1CCOC2(CCN(Cc3cc(F)cc(CCNC[C@H](O)c4ccc(O)c5[nH]c(=O)sc45)c3)CC2)C1 [Example 119, (R)-7-(2-(3-fluoro-5-((4-(quinoline-2-carbonyl)-1-oxa-4,9-diazaspiro[5.5]undecan-9-yl)methyl)phenethylamino)-1-hydroxyethyl)-4-hydroxybenzo[d]thiazol-2(3H)-one]		
108	2		Cc1ccc2nc(C)c(C(=O)N3CCOC4(CCN(Cc5cc(F)cc(CCNC[C@H](O)c6ccc(O)c7[nH]c(=O)sc67)c5)CC4)C3)n2c1 [Example 143, (R)-7-(2-(3-((4-(2,6-dimethylimidazo[1,2-a]pyridine-3-carbonyl)-1-oxa-4,9-diazaspiro[5.5]undecan-9-yl)methyl)-5-fluorophenethylamino)-1-hydroxyethyl)-4-hydroxybenzo[d]thiazol-2(3H)-one]		
101	82		O=C(c1cc2ccccc2[nH]1)N1CCOC2(CCN(Cc3cc(F)cc(CCNC[C@H](O)c4ccc(O)c5[nH]c(=O)sc45)c3)CC2)C1 [Example 120, (R)-7-(2-(3-((4-(1H-indole-2-carbonyl)-1-oxa-4,9-diazaspiro[5.5]undecan-9-yl)methyl)-5-fluorophenethylamino)-1-hydroxyethyl)-4-hydroxybenzo[d]thiazol-2(3H)-one]		
110	56		Cc1cccc2nc(C(=O)N3CCOC4(CCN(Cc5cc(F)cc(CCNC[C@H](O)c6ccc(O)c7[nH]c(=O)sc67)c5)CC4)C3)cn12 [Example 133, (R)-7-(2-(3-fluoro-5-((4-(5-methylimidazo[1,2-a]pyridine-2-carbonyl)-1-oxa-4,9-diazaspiro[5.5]undecan-9-yl)methyl)phenethylamino)-1-hydroxyethyl)-4-hydroxybenzo[d]thiazol-2(3H)-one]		
116	4		Cc1n[nH]c(CC(=O)N2CCOC3(CCN(Cc4cc(F)cc(CCNC[C@H](O)c5ccc(O)c6[nH]c(=O)sc56)c4)CC3)C2)n1 [Example 134, (R)-7-(2-(3-fluoro-5-((4-(2-(3-methyl-1H-1,2,4-triazol-5-yl)acetyl)-1-oxa-4,9-diazaspiro[5.5]undecan-9-yl)methyl)phenethylamino)-1-hydroxyethyl)-4-hydroxybenzo[d]thiazol-2(3H)-one]		
